Experimental data as given in ChEMBL document CHEMBL4715854, “Discovery of Roblitinib (FGF401) as a Reversible-Covalent Inhibitor of the Kinase Activity of Fibroblast Growth Factor Receptor 4” (J Med Chem, 2020).
In brackets after ≈: the same amount, converted by molar mass. Values belong to the compound of their own block, whether it stands above or below them.

Key:
[1] = Clearance in Sprague-Dawley rat at 0.5 mg/kg, iv or 3 mg/kg, po measured upto 24 hrs by LC-MS/MS analysis; type: ADME, organism-based; details: in vivo
[2] = Half life in human liver S9 fraction at 1 uM in presence of NADPH incubated upto 120 mins by LC-MS/MS analysis; type: ADME, subcellular
[3] = Clearance in human liver microsome at 10 mM measured after 15 mins in presence of NADPH by LC-MS analysis; type: ADME; details: liver microsomes, read-out: CLH
[4] = Clearance in mouse cryopreserved hepatocytes at 1 uM incubated from 1 to 80 mins by LC-MS/MS analysis; type: ADME, cell-based, Hepatocyte; details: time 1-80 min
[5] = Clearance in rat cryopreserved hepatocytes at 1 uM incubated from 1 to 80 mins by LC-MS/MS analysis; type: ADME, cell-based, Hepatocyte; details: time 1-80 min
[6] = Clearance in dog cryopreserved hepatocytes at 1 uM incubated from 1 to 80 mins by LC-MS/MS analysis; type: ADME, cell-based, Canis lupus familiaris, Hepatocyte; details: time 1-80 min
[7] = Clearance in human cryopreserved hepatocytes at 1 uM incubated from 1 to 80 mins by LC-MS/MS analysis; type: ADME, cell-based, Hepatocyte; details: time 1-80 min
[8] = Half life in mouse liver S9 fraction at 1 uM in presence of NADPH incubated upto 120 mins by LC-MS/MS analysis; type: ADME, subcellular
[9] = Half life in rat liver S9 fraction at 1 uM in presence of NADPH incubated upto 120 mins by LC-MS/MS analysis; type: ADME, subcellular
[10] = Half life in dog liver S9 fraction at 1 uM in presence of NADPH incubated upto 120 mins by LC-MS/MS analysis; type: ADME, subcellular, Canis lupus familiaris
[11] = Half life in mouse intestinal S9 fraction in presence of NADPH; type: ADME, subcellular, Intestine
[12] = Half life in rat intestinal S9 fraction in presence of NADPH; type: ADME, subcellular, Intestine
[13] = Half life in dog intestinal S9 fraction in presence of NADPH; type: ADME, subcellular, Canis lupus familiaris, Intestine; details: time 120 min
[14] = Half life in human intestinal S9 fraction in presence of NADPH; type: ADME, subcellular, Intestine
[15] = Half-life in Sprague-Dawley rat at 0.5 mg/kg, iv or 3 mg/kg, po measured upto 24 hrs by LC-MS/MS analysis; type: ADME, organism-based; details: in vivo
[16] = Dissociation constant, pKa of compound by potentiometric titration method; type: physicochemical
[17] = Oral bioavailability in Beagle dog at 0.3 mg/kg by LC-MS/MS analysis; type: ADME, organism-based, Canis lupus familiaris; details: Beagle, in vivo
[18] = Half-life in Beagle dog at 0.1 mg/kg, iv or 0.3 mg/kg, po by LC-MS/MS analysis; type: ADME, organism-based, Canis lupus familiaris; details: in vivo
[19] = Volume of distribution at steady state in Beagle dog at 0.1 mg/kg, iv or 0.3 mg/kg, po by LC-MS/MS analysis; type: ADME, organism-based, Canis lupus familiaris; details: in vivo, read-out: Vdss
[20] = Clearance in Beagle dog at 0.1 mg/kg, iv or 0.3 mg/kg, po by LC-MS/MS analysis; type: ADME, organism-based, Canis lupus familiaris; details: in vivo
[21] = Volume of distribution at steady state in female Balb/c mouse at 1 mg/kg, iv or 3 mg/kg, po; type: ADME, organism-based; details: in vivo, read-out: Vdss
[22] = Apparent permeability of compound across basolateral to apical side in human Caco2 cells at 10 mM incubated for 120 mins by lucifer yellow based LC/MS/MS analysis; type: ADME, cell-based; details: Caco-2
[23] = Apparent permeability of compound across apical to basolateral side in human Caco2 cells at 10 mM incubated for 120 mins by lucifer yellow based LC/MS/MS analysis; type: ADME, cell-based; details: Caco-2
[24] = Volume of distribution at steady state in Crl:CD (SD) rat at 1 mg/kg, iv or 3 mg/kg, po measured upto 24 hrs by LC-MS/MS analysis; type: ADME, organism-based; details: in vivo, read-out: Vdss
[25] = Oral bioavailability in Crl:CD (SD) rat at 3 mg/kg measured upto 24 hrs by LC-MS/MS analysis; type: ADME, organism-based; details: Crl:CD (SD), in vivo
[26] = Thermodynamic solubility of compound in phosphate buffer at pH 6.8 measured after 15 mins by shake-flask method based LC-HRMS analysis; type: physicochemical; details: read-out: Therm_solubility
[27] = Half-life in female Balb/c mouse at 1 mg/kg, iv or 3 mg/kg, po; type: ADME, organism-based; details: in vivo
[28] = Oral bioavailability in female Balb/c mouse at 3 mg/kg; type: ADME, organism-based; details: in vivo
[29] = Cmax in mouse xenografted with human Huh-7 cells at 3 mg/kg, po BID administered for 8 days; type: ADME, organism-based; parameters: route oral, time 8 day, dose 3 mg/kg; details: in vivo
[30] = Clearance in dog liver microsome at 10 mM measured after 15 mins in presence of NADPH by LC-MS analysis; type: ADME, Canis lupus familiaris; details: liver microsomes, read-out: CLH
[31] = Clearance in rat liver microsome at 10 mM measured after 15 mins in presence of NADPH by LC-MS analysis; type: ADME; details: liver microsomes, read-out: CLH
[32] = Clearance in mouse liver microsome at 10 mM measured after 15 mins in presence of NADPH by LC-MS analysis; type: ADME; details: liver microsomes, read-out: CLH
[33] = AUC (0-48 hrs) in mouse xenografted with human Huh-7 cells at 12 mg/kg, po administered every other day for 8 days; type: ADME, organism-based; parameters: route oral, time 8 day, dose 12 mg/kg; details: in vivo
[34] = Cmax in mouse xenografted with human Huh-7 cells at 12 mg/kg, po administered every other day for 8 days; type: ADME, organism-based; parameters: route oral, time 8 day, dose 12 mg/kg; details: in vivo
[35] = AUC (0-48 hrs) in mouse xenografted with human Huh-7 cells at 6 mg/kg, po qd administered for 8 days; type: ADME, organism-based; parameters: route oral, time 8 day, dose 6 mg/kg; details: in vivo
[36] = Cmax in mouse xenografted with human Huh-7 cells at 6 mg/kg, po qd administered for 8 days; type: ADME, organism-based; parameters: route oral, dose 6 mg/kg, time 8 day; details: in vivo
[37] = AUC (0-48 hrs) in mouse xenografted with human Huh-7 cells at 3 mg/kg, po BID administered for 8 days; type: ADME, organism-based; parameters: route oral, dose 3 mg/kg, time 8 day; details: in vivo, 192 h
[38] = Drug metabolism in Crl:CD (SD) rat at 1 mg/kg, iv assessed as N-(5-cyanopyridin-2-yl)-7-formyl-3,4-dihydro-1,8-naphthyridine-1(2H)-carboxamide metabolite formation by LC-MS/MS analysis; type: ADME, organism-based; details: in vivo
[39] = Drug metabolism in rat liver microsomes assessed as N-(5-cyanopyridin-2-yl)-7-formyl-3,4-dihydro-1,8-naphthyridine-1(2H)-carboxamide metabolite formation in presence of NADPH by LC-MS analysis; type: ADME, Microsome

clearance [1]: 19 mL/min/kg
half-life at 1 µM [2]: > 2 h
microsomal CLint at […], 10000 µM [3]: 29 µL/min/mg
CLH [4]: 2.5 µL/min/mg
CLH [5]: 11 µL/min/mg
CLH [6]: 6.5 µL/min/mg
CLH [7]: 5.7 µL/min/mg
half-life at 1 µM [8]: > 2 h
half-life at 1 µM [9]: > 2 h
half-life at 1 µM [10]: 0.867 h
half-life [11]: > 2 h
half-life [12]: > 2 h
half-life at 1 µM [13]: > 2 h
half-life [14]: > 2 h
half-life [15]: 4.4 h
pKa [16]: 5.3
bioavailability [17]: 69%
half-life [18]: 6.5 h
Vd [19]: 3 L/kg
clearance [20]: 8 mL/min/kg
Vd [21]: 2.3 L/kg
Papp B→A at 2 h, 10000 µM [22]: 11 ×10⁻⁶ cm/s
Papp A→B at 2 h, 10000 µM [23]: 7.4 ×10⁻⁶ cm/s
Vd [24]: 3.9 L/kg
bioavailability [25]: 20%
solubility thermodynamic at […] [26]: 16 µM (≈ 8.12 µg/mL)
half-life [27]: 1.4 h
F [28]: 20%
Cmax [29]: 180 nM
microsomal CLint at […], 10000 µM [30]: 34 µL/min/mg
microsomal CLint at […], 10000 µM [31]: 18 µL/min/mg
microsomal CLint at […], 10000 µM [32]: 18 µL/min/mg
AUC at 192 h [33]: 7.2 µM·h
Cmax [34]: 1260 nM
AUC at 192 h [35]: 5.2 µM·h
Cmax [36]: 770 nM
AUC [37]: 3.6 µM·h
Structure (SMILES): COCCOc1cc(NC(=O)N2CCCc3cc(CN4CCN(C)CC4=O)c(C=O)nc32)ncc1C#N

Drug metabolism [38]: 1.3 nM
Drug metabolism [39]: 1.3 nM
Structure (SMILES): N#Cc1ccc(NC(=O)N2CCCc3ccc(CO)nc32)nc1
